Results as given in patent US6355799B1, “Substituted benzene compounds, process for their preparation, and herbicidal and defoliant compositions containing them” (ISK Americas Incorporated, priority 1997, dated 2002).

How the values were obtained:
Type in all cases: in vivo
[1] = system: field corn (Zea mays L., var. Dekalb 535, CORN); experiment: Post-emerge test, crop safety; details: post-emerge, 14 days after application, rating scale 0-100
Method in brief: (§1)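 Compounds in acetone were track-sprayed at 15-1000 g ai/ha (187 l/ha) on sandy loam pots: pre-emerge one day after seeding, post-emerge at 2-3 leaf stage with 0.25% v/v non-ionic surfactant. Phytotoxicity was rated 14 days later on a 0 (no damage) to 100 (complete death) scale.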

[2] = system: upland rice (Oryza sp., var. Tebonnet, RICE); experiment: Post-emerge test, crop safety; details: post-emerge, 14 days after application, rating scale 0-100
Method in brief: as §1

[3] = system: redroot pigweed (Amaranthus retroflexus, AMARE); experiment: Pre-emerge test, greenhouse herbicide activity screening; details: rated 14 days after application, 0 = no damage, 100 = complete death
Method in brief: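 Herbicidal damage is scored 0 (none) to 100 (complete plant death) two weeks after a simulated field spray. Rates span 15–1000 g ai/ha, delivered in acetone at 187 l/ha. For post-emergence treatments, plants have 2–3 leaves and the spray carries 0.25% v/v non-ionic surfactant.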

[4] = system: field corn (Zea mays L., var. Dekalb 535, CORN); experiment: Pre-emerge test, crop safety; details: rated 14 days after application, 0 = no damage, 100 = complete death
Method in brief: (§2)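 Applied at 15–1000 g ai/ha from acetone in 187 l/ha spray volume. Post-emergence applications included 0.25% v/v non-ionic surfactant and reached plants sown 8–21 days before. Pre-emergence applications were incorporated by surface watering. Efficacy or crop damage was rated on a 0–100 scale after 14 days.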

[5] = system: upland rice (Oryza sp., var. Tebonnet, RICE); experiment: Pre-emerge test, crop safety; details: rated 14 days after application, 0 = no damage, 100 = complete death
Method in brief: as §2

[6] = system: common ragweed (Ambrosia artemisizfolia L., AMBEL); experiment: Post-emerge test, greenhouse herbicide activity screening; details: post-emerge, 14 days after application, rating scale 0-100
Method in brief: (§3)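 Each test used a mechanized track sprayer delivering 187 l/ha of acetone solution at 15–1000 g ai/ha. Post-emerge foliage at 2–3 leaves was treated with added 0.25% v/v non-ionic surfactant and bottom-watered only. Injury was assessed on day 14, where 100 means total kill.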

[7] = system: ivyleaf morningglory (Ipomoea hederacea, IPOHE); experiment: as above; details: post-emerge, 14 days after application, rating scale 0-100
Method in brief: as §3

[8] = system: large crabgrass (Digitaria sanguinalis, DIGSA); experiment: as above; details: post-emerge, 14 days after application, rating scale 0-100
Method in brief: as §3

[9] = system: johnsongrass (Sorghum halepense, SORHA); experiment: as above; details: post-emerge, 14 days after application, rating scale 0-100
Method in brief: as §3

[10] = system: sicklepod (Cassia obtusifolia, CASOB); experiment: as above; details: post-emerge, 14 days after application, rating scale 0-100
Method in brief: as §3

[11] = system: barnyardgrass (Echinochloa crus-galli, ECHCG); experiment: as above; details: post-emerge, 14 days after application, rating scale 0-100
Method in brief: as §3

[12] = system: redroot pigweed (Amaranthus retroflexus, AMARE); experiment: as above; details: post-emerge, 14 days after application, rating scale 0-100
Method in brief: as §3

[13] = system: lambsquarters (Chenopodium album, CHEAL); experiment: as above; details: post-emerge, 14 days after application, rating scale 0-100
Method in brief: as §3

[14] = system: velvetleaf (Abutilon theophrasti, ABUTH); experiment: as above; details: post-emerge, 14 days after application, rating scale 0-100
Method in brief: as §3

[15] = system: common ragweed (Ambrosia artemisizfolia L., AMBEL); experiment: Pre-emerge test, greenhouse herbicide activity screening; details: rated 14 days after application, 0 = no damage, 100 = complete death
Method in brief: as §1

[16] = system: ivyleaf morningglory (Ipomoea hederacea, IPOHE); experiment: as above; details: rated 14 days after application, 0 = no damage, 100 = complete death
Method in brief: as §1

[17] = system: large crabgrass (Digitaria sanguinalis, DIGSA); experiment: as above; details: rated 14 days after application, 0 = no damage, 100 = complete death
Method in brief: as §1

[18] = system: johnsongrass (Sorghum halepense, SORHA); experiment: as above; details: rated 14 days after application, 0 = no damage, 100 = complete death
Method in brief: as §1

[19] = system: green foxtail (Setaria viridis, SETVI); experiment: as above; details: rated 14 days after application, 0 = no damage, 100 = complete death
Method in brief: as §1

[20] = system: sicklepod (Cassia obtusifolia, CASOB); experiment: as above; details: rated 14 days after application, 0 = no damage, 100 = complete death
Method in brief: as §1

[21] = system: barnyardgrass (Echinochloa crus-galli, ECHCG); experiment: as above; details: rated 14 days after application, 0 = no damage, 100 = complete death
Method in brief: as §1

[22] = system: lambsquarters (Chenopodium album, CHEAL); experiment: as above; details: rated 14 days after application, 0 = no damage, 100 = complete death
Method in brief: as §1

[23] = system: velvetleaf (Abutilon theophrasti, ABUTH); experiment: as above; details: rated 14 days after application, 0 = no damage, 100 = complete death
Method in brief: as §1

Structure (SMILES): COc1c(Cl)cc(F)c(-n2c(=O)cc(C(F)(F)F)n(C)c2=O)c1NC(=O)c1cccnc1 [2-98]
- phytotoxicity rating CORN ([1]; 63 g ai/ha): 20
- phytotoxicity rating CORN ([1]; 250 g ai/ha): 90
- phytotoxicity rating RICE ([2]; 63 g ai/ha): 40
- phytotoxicity rating RICE ([2]; 250 g ai/ha): 90
- Pre-emerge Herbicidal Activity, phytotoxicity rating (0-100), AMARE ([3]; 63 g ai/ha): 100
- Pre-emerge Herbicidal Activity, phytotoxicity rating (0-100), AMARE ([3]; 250 g ai/ha): 100
- Pre-emerge phytotoxicity rating (0-100), crop damage, CORN ([4]; 63 g ai/ha): 70
- Pre-emerge phytotoxicity rating (0-100), crop damage, CORN ([4]; 250 g ai/ha): 90
- Pre-emerge phytotoxicity rating (0-100), crop damage, RICE ([5]; 63 g ai/ha): 60
- Pre-emerge phytotoxicity rating (0-100), crop damage, RICE ([5]; 250 g ai/ha): 90
- phytotoxicity rating AMBEL ([6]; 63 g ai/ha): 80
- phytotoxicity rating AMBEL ([6]; 250 g ai/ha): 100
- phytotoxicity rating IPOHE ([7]; 63 g ai/ha): 100
- phytotoxicity rating IPOHE ([7]; 250 g ai/ha): 100
- phytotoxicity rating DIGSA ([8]; 63 g ai/ha): 0
- phytotoxicity rating DIGSA ([8]; 250 g ai/ha): 50
- phytotoxicity rating SORHA ([9]; 63 g ai/ha): 0
- phytotoxicity rating SORHA ([9]; 250 g ai/ha): 90
- phytotoxicity rating CASOB ([10]; 63 g ai/ha): 100
- phytotoxicity rating CASOB ([10]; 250 g ai/ha): 100
- phytotoxicity rating ECHCG ([11]; 63 g ai/ha): 0
- phytotoxicity rating ECHCG ([11]; 250 g ai/ha): 20
- phytotoxicity rating AMARE ([12]; 63 g ai/ha): 75
- phytotoxicity rating AMARE ([12]; 250 g ai/ha): 100
- phytotoxicity rating CHEAL ([13]; 63 g ai/ha): 70
- phytotoxicity rating CHEAL ([13]; 250 g ai/ha): 90
- phytotoxicity rating ABUTH ([14]; 63 g ai/ha): 100
- phytotoxicity rating ABUTH ([14]; 250 g ai/ha): 100
- Pre-emerge Herbicidal Activity, phytotoxicity rating (0-100), AMBEL ([15]; 63 g ai/ha): 100
- Pre-emerge Herbicidal Activity, phytotoxicity rating (0-100), AMBEL ([15]; 250 g ai/ha): 100
- Pre-emerge Herbicidal Activity, phytotoxicity rating (0-100), IPOHE ([16]; 63 g ai/ha): 100
- Pre-emerge Herbicidal Activity, phytotoxicity rating (0-100), IPOHE ([16]; 250 g ai/ha): 100
- Pre-emerge Herbicidal Activity, phytotoxicity rating (0-100), DIGSA ([17]; 63 g ai/ha): 40
- Pre-emerge Herbicidal Activity, phytotoxicity rating (0-100), DIGSA ([17]; 250 g ai/ha): 95
- Pre-emerge Herbicidal Activity, phytotoxicity rating (0-100), SORHA ([18]; 63 g ai/ha): 30
- Pre-emerge Herbicidal Activity, phytotoxicity rating (0-100), SORHA ([18]; 250 g ai/ha): 95
- Pre-emerge Herbicidal Activity, phytotoxicity rating (0-100), SETVI ([19]; 63 g ai/ha): 80
- Pre-emerge Herbicidal Activity, phytotoxicity rating (0-100), SETVI ([19]; 250 g ai/ha): 100
- Pre-emerge Herbicidal Activity, phytotoxicity rating (0-100), CASOB ([20]; 63 g ai/ha): 100
- Pre-emerge Herbicidal Activity, phytotoxicity rating (0-100), CASOB ([20]; 250 g ai/ha): 100
- Pre-emerge Herbicidal Activity, phytotoxicity rating (0-100), ECHCG ([21]; 63 g ai/ha): 30
- Pre-emerge Herbicidal Activity, phytotoxicity rating (0-100), ECHCG ([21]; 250 g ai/ha): 100
- Pre-emerge Herbicidal Activity, phytotoxicity rating (0-100), CHEAL ([22]; 63 g ai/ha): 100
- Pre-emerge Herbicidal Activity, phytotoxicity rating (0-100), CHEAL ([22]; 250 g ai/ha): 100
- Pre-emerge Herbicidal Activity, phytotoxicity rating (0-100), ABUTH ([23]; 63 g ai/ha): 100
- Pre-emerge Herbicidal Activity, phytotoxicity rating (0-100), ABUTH ([23]; 250 g ai/ha): 100
